Counter-ions that a name gives are not always drawn.
What follows are molecules tested against T1, Nav1.7 (or SCN9A) channel (Homo sapiens, UniProt Q15858) (assay: Nav1.7 (hSCN9A) channel block, PatchXpress whole-cell electrophysiology). Settings: PatchXpress platform; HEK cells stably transfected with hSCN9A; estimated IC-50 calculated from single point % inhibition at V1/2; read-out: Nav1.7 EIC50.
T1 construct: expressed in transfected cells
Assay type: cell-based
Method: The ability of the compounds of formula (I) to block the Nav1.7 (or SCN9A) channel were measured using the assay described below.
Human Embryonic Kidney (HEK) cells were transfected with an hSCN9A construct using lipofectamine reagent (Invitrogen), using standard techniques. Cells stably expressing the hSCN9A constructs were identified by their resistance to G-418 (400 μg/ml). Clones were screened for expression using the whole-cell voltage-clamp technique.
HEK cells stably transfected with hSCN9A were maintained in DMEM medium supplemented with 10% heat-inactivated fetal bovine serum and 400 μg/ml G-418 in an incubator at 37° C. with a humidified atmosphere of 10% CO2. For HTS, cells were harvested from flasks by trypsinization and replated in an appropriate multi-well plate (typically 96 or 384 wells/plate) such that confluence would be achieved within 24 hours of plating. For electrophysiological studies, cells were removed from the culture flask by brief trypsinization and re-plated at low density onto glass cover slips. Cells were typically used for electrophysiological experiments within 24 to 72 hours after plating.
Cover slips containing HEK cells expressing hSCN9A were placed in a bath on the stage of an inverted microscope and perfused (approximately 1 ml/minutes) with extracellular solution of the following composition: 138 mM NaCl, 2 mM CaCl2, 5.4 mM KCl, 1 mM MgCl2, 10 mM glucose, and 10 mM HEPES, pH 7.4, with NaOH. […] The osmolarity of the extracellular and intracellular solutions was 300 mOsm/kg and 295 mOsm/kg, respectively. All recordings were made at room temperature (22-24° C.) using AXOPATCH 200B amplifiers and PCLAMP software (Axon Instruments, Burlingame, Calif.).
hSCN9A currents in HEK cells were measured using the whole-cell configuration of the patch-clamp technique (Hamill et al., 1981). Uncompensated series resistance was typically 2 to 5 mega ohms and >85% series resistance compensation was routinely achieved. As a result, voltage errors were negligible and no correction was applied. Current records were acquired at 20 to 50 KHz and filtered at 5 to 10 KHz.
HEK cells stably transfected with hSCN9A were viewed under Hoffman contrast optics and placed in front of an array of flow pipes emitting either control or compound-containing extracellular solutions. All compounds were dissolved in dimethyl sulfoxide to make 10 mM stock solutions, which were then diluted into extracellular solution to attain the final concentrations desired. […] The voltage-dependence of inactivation was determined by applying a series of depolarizing prepulses (8 sec long in 10 mV increments) from a negative holding potential. The voltage was then immediately stepped to 0 mV to assess the magnitude of the sodium current. Currents elicited at 0 mV were plotted as a function of prepulse potential to allow estimation of the voltage at which 50% of the channels were inactivated (midpoint of inactivation or V1/2). Compounds were tested for their ability to inhibit hSCN9A sodium channels by activating the channel with a 20 msec voltage step to 0 mV following an 8 second conditioning prepulse to the empirically determined V1/2. Compound effect (% inhibition) was determined by difference in current amplitude before and after application of test compounds. […] Inhibition values <20% and >80% were excluded from the calculation.
Electrophysiological assays were conducted with PatchXpress 7000 hardware and associated software (Molecular Devices Corp). All assay buffers and solutions were identical to those used in conventional whole-cell voltage clamp experiments described above. hSCN9A cells were grown as above to 50%-80% confluency and harvested by trypsinization. Trypsinized cells were washed and resuspended in extracellular buffer at a concentration of 1×10^6 cells/ml. The onboard liquid handling facility of the PatchXpress was used for dispensing cells and application of test compounds. […]

T1 sequence (Q15858 whole entry): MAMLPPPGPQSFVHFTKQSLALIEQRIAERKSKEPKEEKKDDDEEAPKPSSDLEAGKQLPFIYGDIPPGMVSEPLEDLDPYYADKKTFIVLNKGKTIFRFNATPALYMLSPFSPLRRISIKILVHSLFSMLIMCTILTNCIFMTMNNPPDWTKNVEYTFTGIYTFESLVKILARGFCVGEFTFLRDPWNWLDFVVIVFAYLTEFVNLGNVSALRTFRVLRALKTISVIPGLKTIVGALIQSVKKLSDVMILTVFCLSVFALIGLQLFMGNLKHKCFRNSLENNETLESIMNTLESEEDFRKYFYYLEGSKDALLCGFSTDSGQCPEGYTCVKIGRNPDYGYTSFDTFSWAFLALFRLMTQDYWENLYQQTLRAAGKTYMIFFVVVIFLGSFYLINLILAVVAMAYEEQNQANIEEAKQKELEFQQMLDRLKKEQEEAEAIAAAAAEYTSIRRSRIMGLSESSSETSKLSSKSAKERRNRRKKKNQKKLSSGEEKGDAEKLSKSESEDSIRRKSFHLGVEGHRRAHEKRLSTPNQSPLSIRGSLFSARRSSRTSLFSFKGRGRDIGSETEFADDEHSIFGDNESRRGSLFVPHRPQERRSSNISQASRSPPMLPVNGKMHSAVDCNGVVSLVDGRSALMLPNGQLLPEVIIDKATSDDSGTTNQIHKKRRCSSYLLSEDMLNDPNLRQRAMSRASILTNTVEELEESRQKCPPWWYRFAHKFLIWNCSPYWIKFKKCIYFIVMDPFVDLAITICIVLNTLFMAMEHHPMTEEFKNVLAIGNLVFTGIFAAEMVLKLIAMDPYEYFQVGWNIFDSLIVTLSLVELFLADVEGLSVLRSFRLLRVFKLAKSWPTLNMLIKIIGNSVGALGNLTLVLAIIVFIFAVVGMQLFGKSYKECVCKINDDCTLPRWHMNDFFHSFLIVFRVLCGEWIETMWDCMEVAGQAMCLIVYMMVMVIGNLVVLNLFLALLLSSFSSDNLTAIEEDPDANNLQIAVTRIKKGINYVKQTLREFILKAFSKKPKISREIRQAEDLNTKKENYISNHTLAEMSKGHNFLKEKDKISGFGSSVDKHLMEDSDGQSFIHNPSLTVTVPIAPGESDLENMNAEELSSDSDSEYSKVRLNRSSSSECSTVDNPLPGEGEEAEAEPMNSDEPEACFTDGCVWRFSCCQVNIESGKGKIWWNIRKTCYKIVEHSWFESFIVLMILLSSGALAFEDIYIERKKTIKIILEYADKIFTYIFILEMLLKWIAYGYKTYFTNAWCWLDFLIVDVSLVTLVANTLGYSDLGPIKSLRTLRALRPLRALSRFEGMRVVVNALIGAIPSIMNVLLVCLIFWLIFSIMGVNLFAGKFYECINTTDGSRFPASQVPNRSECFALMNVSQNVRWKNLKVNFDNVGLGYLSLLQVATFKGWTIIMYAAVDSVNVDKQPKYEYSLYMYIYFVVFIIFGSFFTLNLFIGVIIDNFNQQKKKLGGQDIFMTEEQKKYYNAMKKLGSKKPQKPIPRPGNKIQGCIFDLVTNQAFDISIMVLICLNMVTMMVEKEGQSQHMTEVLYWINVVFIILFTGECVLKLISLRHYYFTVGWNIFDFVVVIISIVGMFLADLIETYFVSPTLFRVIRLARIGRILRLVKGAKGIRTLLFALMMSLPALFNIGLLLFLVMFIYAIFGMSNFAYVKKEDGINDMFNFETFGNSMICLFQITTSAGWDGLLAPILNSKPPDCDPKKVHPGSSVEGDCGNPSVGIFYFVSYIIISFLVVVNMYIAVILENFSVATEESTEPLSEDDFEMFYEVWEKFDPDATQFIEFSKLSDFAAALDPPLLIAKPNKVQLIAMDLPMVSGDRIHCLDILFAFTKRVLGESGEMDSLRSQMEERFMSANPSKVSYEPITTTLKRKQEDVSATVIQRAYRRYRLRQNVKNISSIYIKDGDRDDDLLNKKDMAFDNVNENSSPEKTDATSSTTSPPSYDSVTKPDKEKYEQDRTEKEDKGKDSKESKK

| IC50 [nM] | SMILES |
| --- | --- |
| 39.2 | CS(=O)(=O)NC(=O)c1cc(F)c(COc2cnc(OCCC(F)(F)F)c(Cl)c2)cc1F [Example 11, 4-({[5-Chloro-6-(3,3,3-trifluoropropoxy)pyridin-3-yl]oxy}methyl)-2,5-difluoro-N-(methylsulfonyl)benzamide] |
| 843 | CS(=O)(=O)NC(=O)c1cc(F)c(COc2cnc(C(F)(F)F)c(Cl)c2)cc1F [Example 12, 4-({[5-Chloro-6-(trifluoromethyl)pyridin-3-yl]oxy}methyl)-2,5-difluoro-N-(methylsulfonyl)benzamide] |
| 81.4 | CC(C)(F)COc1ncc(OCc2cc(F)c(C(=O)NS(C)(=O)=O)cc2F)cc1Cl [Example 13, 4-((5-Chloro-6-(2-fluoro-2-methylpropoxy)pyridin-3-yloxy)methyl)-2,5-difluoro-N-(methylsulfonyl)benzamide] |
| 66.8 | CC1(COc2ncc(OCc3cc(F)c(C(=O)NS(C)(=O)=O)cc3F)cc2Cl)CC1 [Example 14, 4-((5-Chloro-6-((1-methylcyclopropyl)methoxy)pyridin-3-yloxy)methyl)-2,5-difluoro-N-(methylsulfonyl)benzamide] |
| 150 | CS(=O)(=O)NC(=O)c1cc(F)c(COc2cnc(OCC(F)(F)F)c(Cl)c2)cc1F [Example 16, 4-((5-Chloro-6-(2,2,2-trifluoroethoxy)pyridin-3-yloxy)methyl)-2,5-difluoro-N-(methylsulfonyl)benzamide] |
| 156 | CS(=O)(=O)NC(=O)c1cc(F)c(COc2cnc(OCC3CC3)c(Cl)c2)cc1F [Example 17, 4-((5-Chloro-6-(cyclopropylmethoxy)pyridin-3-yloxy)methyl)-2,5-difluoro-N-(methylsulfonyl)benzamide] |
| 730 | CS(=O)(=O)NC(=O)c1cc(F)c(COc2cnc(OCC3CC(F)(F)C3)c(Cl)c2)cc1F [Example 19, 4-((5-Chloro-6-((3,3-difluorocyclobutyl)methoxy)pyridin-3-yloxy)methyl)-2,5-difluoro-N-(methylsulfonyl)benzamide] |
| 9.2 | CS(=O)(=O)NC(=O)c1cc(F)c(COc2cnc(OCC(F)(F)C(F)F)c(Cl)c2)cc1F [Example 22, 4-({[5-Chloro-6-(2,2,3,3-tetrafluoropropoxy)pyridin-3-yl]oxy}methyl)-2,5-difluoro-N-(methylsulfonyl)benzamide] |
| 18.6 | CS(=O)(=O)NC(=O)c1cc(F)c(COc2cnc(OCC(F)(F)C(F)(F)F)c(Cl)c2)cc1F [Example 25, 4-({[5-Chloro-6-(2,2,3,3,3-pentafluoropropoxy)pyridin-3-yl]oxy}methyl)-2,5-difluoro-N-(methylsulfonyl)benzamide] |
| 42 | CC(Oc1ncc(OCc2cc(F)c(C(=O)NS(C)(=O)=O)cc2F)cc1Cl)C(F)(F)F (stereo not shown) [Example 27, 4-((5-Chloro-6-(1,1,1-trifluoropropan-2-yloxy)pyridin-3-yloxy)methyl)-2,5-difluoro-N-(methylsulfonyl)benzamide] |
| 7440 | COc1ncc(OCc2cc(F)c(C(=O)NS(C)(=O)=O)cc2F)cc1Cl [Example 28, 4-((5-Chloro-6-methoxypyridin-3-yloxy)methyl)-2,5-difluoro-N-(methylsulfonyl)benzamide] |

Second part, the molecule before the results:

| SMILES | IC50 [nM] |
| --- | --- |
| CC(C)COc1ncc(OCc2cc(F)c(C(=O)NS(C)(=O)=O)cc2F)cc1Cl [Example 1, 4-{[(5-Chloro-6-isobutoxypyridin-3-yl)oxy]methy}-2,5-difluoro-N-(methylsulfonyl)benzamide diethylamine salt] | 13.9 |
| CC(C)COc1ncc(OCc2ccc(C(=O)NS(C)(=O)=O)cc2)cc1Cl [Example 3, 4-{[(5-Chloro-6-isobutoxypyridin-3-yl)oxy]methyl}-N-(methylsulfonyl)benzamide diethylamine salt] | 324 |
| COc1ncc(OCc2cc(F)c(C(=O)NS(=O)(=O)C3CC3)cc2F)cc1Cl [Example 4, 4-((5-Chloro-6-methoxypyridin-3-yloxy)methyl)-N-(cyclopropylsulfonyl)-2,5-difluorobenzamide] | 2600 |
| COc1cc(C(=O)NS(C)(=O)=O)ccc1COc1cnc(OCC(C)C)c(Cl)c1 [Example 5, 4-((5-Chloro-6-isobutoxypyridin-3-yloxy)methyl)-3-methoxy-N-(methylsulfonyl)benzamide diethylamine salt] | 281 |
| COc1ncc(OCc2ccc(C(=O)NS(C)(=O)=O)cc2)cc1Cl [Example 6, 4-((5-Chloro-6-methoxypyridin-3-yloxy)methyl)-N-(methylsulfonyl)benzamide] | 3580 |
| COc1ccc(OCc2ccc(C(=O)NS(C)(=O)=O)cc2)cn1 [Example 7, 4-{[(6-Methoxypyridin-3-yl)oxy]methyl}-N-(methylsulfonyl)benzamide] | 35700 |
| CS(=O)(=O)NC(=O)c1ccc(OCc2ccc(C(F)(F)F)nc2)cc1 [Example 9, N-(methylsulfonyl)-4-{[6-(trifluoromethyl)pyridin-3-yl]methoxy}benzamide formate salt] | > 1000 |
| CS(=O)(=O)NC(=O)c1ccc(COc2cncc(Cl)c2)cc1 [Example 10, 4-((5-Chloropyridin-3-yloxy)methyl)-N-(methylsulfonyl)benzamide] | 8460 |
| [2H]C([2H])([2H])C(Oc1ncc(OCc2cc(F)c(C(=O)NS(C)(=O)=O)cc2F)cc1Cl)(C([2H])([2H])[2H])C([2H])([2H])[2H] [Example 15] | 30.8 |
| CC(C)(C)Oc1ncc(OCc2cc(F)c(C(=O)NS(C)(=O)=O)cc2F)cc1Cl [Example 18, 4-((6-tert-Butoxy-5-chloropyridin-3-yloxy)methyl)-2,5-difluoro-N-(methylsulfonyl)benzamide] | 80.6 |
| CS(=O)(=O)NC(=O)c1cc(F)c(COc2cncc(Cl)c2)cc1F [Example 20, 4-{[(5-Chloropyridin-3-yl)oxy]methyl}-2,5-difluoro-N-(methylsulfonyl)benzamide] | > 3000 |
| [2H]C([2H])([2H])C([2H])(Oc1ncc(OCc2cc(F)c(C(=O)NS(C)(=O)=O)cc2F)cc1Cl)C([2H])([2H])[2H] [Example 21, 4-{[(5-Chloro-6-d7-isopropoxypyridin-3-yl)oxy]methyl}-2,5-difluoro-N-(methylsulfonyl)benzamide] | 161 |
| [2H]C(C)(C)Oc1ncc(OCc2cc(F)c(C(=O)NS(C)(=O)=O)cc2F)cc1Cl [Example 24, 4-{[(5-Chloro-6-d1-isopropoxypyridin-3-yl)oxy]methyl}-2,5-difluoro-N-(methylsulfonyl)benzamide] | 140 |
| CS(=O)(=O)NC(=O)c1cc(F)c(COc2ccc(C(F)(F)F)nc2)cc1F [Example 26, 2,5-Difluoro-N-(methylsulfonyl)-4-({[6-(trifluoromethyl)pyridin-3-yl]oxy}methyl)benzamide] | 4980 |
| CC(C)Oc1ncc(COc2cc(F)c(C(=O)NS(C)(=O)=O)cc2F)cc1Cl [Example 29, 4-((5-Chloro-6-isopropoxypyridin-3-yl)methoxy)-2,5-difluoro-N-(methylsulfonyl)benzamide diethylamine salt] | 838 |
| CS(=O)(=O)NC(=O)c1cc(Cl)c(COc2cnc(OC(C(F)(F)F)C(F)(F)F)c(Cl)c2)cc1F [Example 30, 5-Chloro-4-((5-chloro-6-(1,1,1,3,3,3-hexafluoropropan-2-yloxy)pyridin-3-yloxy)methyl)-2-fluoro-N-(methylsulfonyl)benzamide] | < 100 |
| CC(Oc1ncc(OCc2cc(F)c(C(=O)NS(C)(=O)=O)cc2Cl)cc1Cl)C(F)(F)F (stereo not shown) [Example 31, 5-Chloro-4-((5-chloro-6-(1,1,1-trifluoropropan-2-yloxy)pyridin-3-yloxy)methyl)-2-fluoro-N-(methylsulfonyl)benzamide] | < 100 |

— patent US9102621B2, “Acyl sulfonamide compounds” (Pfizer Limited, priority 2010, dated 2015)
